Test results: PMC12037858 (Scientific Reports, 2025)

Molecular target: Fascin (Homo sapiens, UniProt Q16658)
Assay: Image-based F-actin bundling assay
Assay type: biochemical
Conditions: 400 µM compound

- Inhibition of fascin-mediated F-actin bundle formation: prevents fiber formation
Structure (SMILES): O=C(Nc1ccncc1)c1cn(Cc2ccc(Cl)c(Cl)c2)c(=O)c2cnn(C3CCNCC3)c12 [BDP-13176]
